The record followed here is patent publication US6617444B1, “Dinucleotide tetraphosphate crystals” (Yamasa Corporation, priority 1999, dated 2003).

The nature of data set [1]: Hygroscopicity: standing at controlled temperature and relative humidity. It counts as physicochemical. The procedure:
dCP4U.4Na crystals (decahydrate) having a water content of approximately 17.4% were allowed to stand for two days under the following conditions a), b) and c): a) 25° C. and a relative humidity of 57%; b) 25° C. and a relative humidity of 75%; c) 25° C. and a relative humidity of 93%. […] The crystals have proven to be stable and to have no hygroscopicity. In addition, the same crystals were allowed to stand for seven days under the following severe conditions d): d) 40° C. and a relative humidity of 75%.

Data set [2] can be described thus: Stability: acceleration test, sealed bottles stored at 60° C. It counts as physicochemical. The settings on record: sealed bottle, 13 days at 60° C. (acceleration test). The procedure: dCP4U.4Na crystals (decahydrate) and a freeze-dried product were individually placed in bottles, which were then sealed and stored for 13 days at 60° C. (acceleration test).
The mark [3] stands for this setting: two days, 25° C., relative humidity 75%.
Where [4] appears, read: two days, 25° C., relative humidity 93%.

SMILES strings stand for the structures.

As to `Nc1ccn([C@H]2CC(O)[C@@H](COP(=O)(O)OP(=O)(O)OP(=O)(O)OP(=O)(O)OC[C@H]3O[C@@H](n4ccc(=O)[nH]c4=O)C(O)C3O)O2)c(=O)n1` (stereo partly drawn) [dCP4U.4Na crystals (decahydrate), p^1-(2′-deoxycytidine 5′-)P^4-(uridine 5′-)tetraphosphate], the “change on standing under severe conditions” value in data set [1] (seven days, 40° C., relative humidity 75%) is recorded as “No change was observed”. The “decomposition or change in weight on standing (hygroscopicity)” value in data set [1] (two days, 25° C., relative humidity 57%) was “No decomposition or change in weight was observed”. Moreover, the “decomposition or change in weight / state on standing (hygroscopicity)” value in data set [1] (setting [3]) and in data set [1] (setting [4]) was “No decomposition or change in weight was observed” in each case. Also, the decomposition on storage entry in data set [2] was “No decomposition”.

In the case of `Nc1ccn([C@H]2CC(O)[C@@H](COP(=O)(O)OP(=O)(O)OP(=O)(O)OP(=O)(O)OC[C@H]3O[C@@H](n4ccc(=O)[nH]c4=O)C(O)C3O)O2)c(=O)n1` (stereo partly drawn) [freeze-dried product, p^1-(2′-deoxycytidine 5′-)P^4-(uridine 5′-)tetraphosphate, reference compound], the “decomposition or change in weight / state on standing (hygroscopicity)” value in data set [1] (setting [3]) is “assumed a mud-like state due to gradual increase in water content”. In addition, the “decomposition or change in weight / state on standing (hygroscopicity)” value in data set [1] (setting [4]) is reported as “assumed a mud-like state due to gradual increase in water content”. For the same compound, in data set [2], the decomposition on storage entry is on record as “partially decomposed” and the “purity loss on storage” value was “approximately 2.2%”.
